Earlier results in patent publication US8846088B2, “Melt granulation of a composition containing a calcium-containing compound” (Takeda Nycomed AS, priority 2005, dated 2014).

System: elderly patients
Conditions: annual injections of 150.000-300.000 IU

vitamin D
overall fracture rate: significant reduction in overall fracture rate | rate of hip fracture: not in the rate of hip fracture
